How the values were obtained:
[1] = Water solubility / dissolution; type: physicochemical; settings: primary addition of apo-carotenal, in words
[2] = Procedure: The colour stability of the compositions according to the present invention were determined using the following simulated shelf and accelerated storage tests.
This is illustrated with data from a study in which combinations of β-carotene, apo-carotenal and ascorbic acid were incorporated in a typical beverage formulation. The products were stored in bright daylight conditions for a period of 30 days and the colour loss at the end of this period was determined by spectrophotometry.

[3] = Effect of temperature on amount of emulsifier required to achieve optical clarity (Example 6); type: physicochemical; settings: for Tween 60 required to achieve optical clarity: 1 g crystalline β-carotene
Procedure: One advantage of the present invention is the wide range of temperatures which can be used in b) above. The temperature developed in mixing in b) is preferably 80°-160° or 180°-200° C. The lower temperatures are particularly useful where more temperature sensitive ingredients are involved. […] Therefore to minimise the amount of emulsifier(s) used, a temperature of not less than 160° C. or preferably 180° C. is preferred. The use of these high temperatures incurs the risk of degradation of pigment unless suitable precautions are taken. For example it is necessary to incorporate an antioxidant in the initial stages of preparation and it is desirable to exclude oxygen by heating the mixture in an atmosphere of nitrogen.
1 g of crystalline β-carotene required the following amounts of Tween 60 at the temperatures stated

effect on dissolution of carotene [1] | Tween 60 required to achieve optical clarity ([3]; 140 °C) [g] | Tween 60 required to achieve optical clarity ([3]; 160 °C) [g] | Tween 60 required to achieve optical clarity ([3]; 180 °C) [g] | Tween 60 required to achieve optical clarity ([3]; 200 °C) [g] | SMILES | stabilising effect on colour [2] | effect of temperature on emulsifier required to achieve optical clarity ([3]; pure β-carotene, in words)
promoting the dissolution of carotene | – | – | – | – | CC(C=O)=CC=CC(C)=CC=CC=C(C)C=CC=C(C)C=CC1=C(C)CCCC1(C)C [apo-carotenal, β-8'-apo-carotenal] | helps to stabilise β-carotene | –
– | – | – | – | – | O=C1O[C@H]([C@@H](O)CO)C(O)=C1O [ascorbic acid] | effective in reinforcing the stabilising effect of the antioxidants | –
– | 10.5 | 7.5 | 4.0 | 3.0 | CC1=C(/C=C/C(C)=C/C=C/C(C)=C/C=C/C=C(C)/C=C/C=C(C)/C=C/C2=C(C)CCCC2(C)C)C(C)(C)CCC1 [crystalline β-carotene, β-carotene] | – | an increase in temperature permits a reduction in the amount of emulsifier(s) required
